Here are results for 2 molecules from PMC10134573 (Biochemistry, 2022).

One data set concerns the target T1, CheA WT (Tm CheA) (Thermotoga maritima, UniProt Q56310).
T1 sequence (Q56310 1-671): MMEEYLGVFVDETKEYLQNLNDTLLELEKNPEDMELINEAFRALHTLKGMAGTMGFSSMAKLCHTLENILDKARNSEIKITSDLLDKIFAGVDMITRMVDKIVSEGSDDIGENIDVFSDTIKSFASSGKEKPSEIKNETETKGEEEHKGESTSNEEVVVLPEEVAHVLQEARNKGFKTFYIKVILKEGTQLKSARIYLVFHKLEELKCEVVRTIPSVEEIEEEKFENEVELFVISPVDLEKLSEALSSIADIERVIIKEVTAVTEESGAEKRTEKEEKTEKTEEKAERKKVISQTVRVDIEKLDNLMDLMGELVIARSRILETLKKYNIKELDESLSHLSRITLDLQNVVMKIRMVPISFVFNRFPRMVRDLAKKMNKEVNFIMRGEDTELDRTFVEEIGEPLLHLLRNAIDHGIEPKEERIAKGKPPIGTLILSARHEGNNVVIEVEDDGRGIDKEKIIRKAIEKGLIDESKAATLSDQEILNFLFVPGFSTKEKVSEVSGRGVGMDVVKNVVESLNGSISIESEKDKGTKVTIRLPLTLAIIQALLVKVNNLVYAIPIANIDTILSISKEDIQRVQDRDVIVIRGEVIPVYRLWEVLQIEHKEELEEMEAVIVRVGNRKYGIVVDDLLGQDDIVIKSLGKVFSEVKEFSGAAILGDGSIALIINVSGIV
Description: TNP-ATP displacement, fluorescence. The format is binding.

The data set “SEC + other: SAXS” concerns the molecule itself. Description: SEC + other: SAXS.

As usually defined, the IC50 is the concentration needed to halve the response being measured. `Nc1ncnc2c1ncn2[C@@H]1O[C@H](COP(=O)(O)OP(=O)(O)O)[C@@H](O)[C@H]1O` [ADP] registered an IC50 on CheA WT (Tm CheA) of 405 ± 21 µM.

B1: Thermotoga maritima CheA WT (enzyme, UniProt Q56310 1-671, looked up)
chain: T1 sequence (Q56310 1-671)
Broadly, the stoichiometry N is a count of units in the complex or per binding partner. Turning to B1, the “stoichiometry N” value in the data set “SEC + other: SAXS” amounted to 2.
